The source of these data is a melting point compilation (Tetko et al.; mined from patent text by program, amines drawn as free bases though some values may be those of a salt).

On to `COc1ccc(Cl)cc1C(=O)NCCc1ccc(CCCCCCCCCC(=O)O)cc1`, for which the melting point (usually the temperature of the solid-liquid transition) was in the range of 97 to 100 °C.
Consider `COCCNC(=O)COc1ccc(C(=O)CN2CCN(c3ccncc3)CC2)cc1`, for which the melting point was 142 to 145 °C.
The compound `CCCCN(Cc1ccc(-c2ccccc2-c2nnnn2C(c2ccccc2)(c2ccccc2)c2ccccc2)cc1)c1nc(SC)ncc1C(=O)OCC` displayed a melting point of 122 to 124 °C.
For `Oc1cnccc1CCCOc1cccnc1Cc1cccc(Br)c1`, the melting point was in the range of 138 to 139 °C.
With `O=C(Nc1c(Cl)cccc1Cl)c1cccc2cccnc12`, the melting point lay within 168 to 169 °C.
`CN(C)c1ccc(C=CC(O)Cc2ccccc2)cc1` (stereo not given) returned a melting point of 158 to 162 °C.
`CCCCCCCCCCC1Cc2ccc(C(=O)O)cc2N1` (racemic) displayed a melting point of 123 to 125 °C.
In turn, `COc1ccc2cc(C(=O)C(C)Br)ccc2c1Br` (stereo not given) had a melting point of 166 to 167 °C.
Turning to `COc1cccc2c(NCc3ccccc3C)cc(C(=O)O)nc12`, the melting point is 276 to 277 °C.
Take `COC(=O)C1CNCCN1C(=O)c1cc(OC)c(OC)c(OC)c1` (stereo not given): the melting point was in the range of 134 to 135 °C.
Next, `OC(CCCl)COc1ccc(F)cc1` (stereo not given): 53 to 55 °C; `Nc1cc(-c2c(-c3ccc(Cl)cc3)nc3cccnn23)ccn1`: 252 to 253 °C.
Next, `CCOC(=O)C1Oc2cccnc2NC1=O` (stereo not given): 160 to 162 °C.
On to `COC(=O)c1sc(-c2ccc(OCc3ccc([N+](=O)[O-])cc3)c(OC)c2)cc1NC(C)=O`, for which the melting point lay within 193 to 194 °C.
`COc1ccc2cc(C(C)C(=O)ON3CCCCC3)ccc2c1` (stereo not given): the melting point is 95 to 97 °C.
In turn, `Cc1cc(Br)cc(C)c1N([Si](C)(C)C)[Si](C)(C)C` came in with a melting point of 47 to 52 °C.
As to `CC(=O)Nc1nc(Cl)c2ncn(COC(COC(C)=O)COC(C)=O)c2n1`, the melting point lay in the range of 139 to 140 °C.
Compound `CC(C)(CC(C)(Sc1cc(C(C)(C)C)c(O)c(C(C)(C)C)c1)Sc1cc(C(C)(C)C)c(O)c(C(C)(C)C)c1)Sc1cc(C(C)(C)C)c(O)c(C(C)(C)C)c1` displayed a melting point of 93 to 115 °C.
As for `NC(=O)c1ccc(NC2CCCN(Cc3ccccc3)CC2)c(Cl)c1` (stereo not given), the melting point was in the range of 174 to 175 °C.
The figure for `CCOC(=O)Cn1c(=S)c2cc(Cl)ccc2n(Cc2ccc(Br)cc2F)c1=O` is 89 to 90 °C; for `CCCNC(=O)[C@H](C)C[C@H](O)[C@H](CC1CCCCC1)NC(=O)[C@H](Cc1cscn1)NC(=O)[C@@H](CC(=O)N(C)Cc1ccccc1)Cc1ccccc1` it is 115 to 118 °C.
`C=C(C)c1c2c(c(C)c(C)c1N1CCN(c3ccc(OC)cc3)CC1)OC(C)(C)C2` displayed a melting point of 174 to 175 °C.
`CC(=O)OC1CSC(Sc2ccc(C(F)(F)F)cc2)C(OC(C)=O)C1OC(C)=O` (stereo not given) gave a melting point of 160 °C.
Regarding `ON=C(c1ccccc1OCc1ccc(Cl)cc1)n1ccnc1`, the melting point fell in the range of 196 to 197 °C.
Consider `CCOc1cc2cc(CO)c(CO)c(-c3ccncc3)c2cc1OCC`, for which the melting point lay in the range of 159 to 161 °C.
Compound `Cc1ccc(C(c2cc(C(C)(C)C)cc(C(C)(C)C)c2O)N(C)C)cc1C` (stereo not given) showed a melting point of 82 to 85 °C.
For the compound `CN(C)c1ncc2c(n1)-c1ccc(Cl)cc1C(c1ccccc1F)=NC2`, the melting point is 175 to 179 °C.
`O=[N+]([O-])c1[nH]c(-c2c(Cl)cc(C(F)(F)F)cc2Cl)nc1C(F)(F)F`: the melting point lay in the range of 244 to 252 °C.
Next, `CCCCCCCCc1ccc(-c2ncc(O)cn2)cc1`: 147 to 149 °C.
For the compound `CC1COCc2nc3c(N)nc4c(c3n21)CCCC4` (stereo not given), the melting point was 209 to 211 °C.
Consider `CC1(C)OC(=O)Nc2ccc(-c3ccc(C#N)n3CC(=O)O)cc21`, for which the melting point was in the range of 207 to 209 °C.
Turning to `CCCCCCCCCCc1cnc(-c2ccc3c(c2)C(=O)C(CCCCCC)C3)nc1` (stereo not given), the melting point came to 87 °C.
As for `COC(=O)Cc1nc(-c2ccc(Cl)cc2)oc1Oc1cccc([N+](=O)[O-])c1`, the melting point lay within 97 to 99 °C.
For `Cn1cc(SC(F)(F)F)c(=O)c(-c2cccc(C(F)(F)F)c2)c1`, the melting point lay within 122 to 124 °C.
As to `Cc1c(C)c2ccc(OCCCCN3CCN(c4cccc(Cl)c4Cl)CC3)nc2[nH]c1=O`, the melting point lay within 161 to 163 °C.
As for `CCOC(=O)Cc1ccc(-c2nc(COc3ccc(COc4nn(-c5ccccc5)cc4/C=C/c4csc(C)n4)cc3OC)c(C)o2)cc1`, the melting point is 153 to 155 °C.
In turn, `Cc1cccc(-c2nc(N)sc2-c2ccnc(-c3ccc(OC(F)(F)F)cc3)c2)n1` yielded a melting point of 222 to 224 °C.
Next, `CC(Nc1ccc2[nH]c(=O)oc2c1)C(=O)N1CCC(Cc2ccccc2)CC1` (stereo not given): 91 °C; `O=[N+]([O-])c1ccccc1-c1nnc(-c2ccc(C3OCCO3)cc2)o1`: 88 to 89 °C.
`Cc1ccccc1NC(=O)Nc1ccc(-c2c(CCO)sc3ncnc(N)c23)cc1` came in with a melting point of 159 to 162 °C.
For `CCOCCN(CCOCC)NC(=O)NS(=O)(=O)c1ccc(Cl)cc1`, the melting point was in the range of 84.5 to 85.5 °C.
The figure for `COc1ccccc1C(=O)Nc1ccc(Cl)cc1` is 56.1 to 58.7 °C.
`COc1cc(-c2cccc(Cl)c2)c2cc(C(O)(c3ccc(Cl)cc3)c3nnc(S)n3C)ccc2n1` (stereo not given): the melting point was > 260 °C.
`O=[N+]([O-])c1ccc(Oc2ccc(S(=O)(=O)c3ccc(Oc4ccc([N+](=O)[O-])c(O)c4)cc3)cc2)cc1O` gave a melting point of 220 to 222 °C.
With `CS(=O)(=O)c1ccc(-c2cnn(CC(F)(F)F)c(=O)c2C2=CCCCC2)cc1`, the melting point lay within 75 to 81 °C.
`COC(=O)c1[nH]c2cccc3c2c1CCNC3=O`: the melting point lay within 266 to 267 °C.
`C=CCc1c(O)ccc2ccc(=O)[nH]c12`: the melting point was in the range of 207 to 209 °C.
For `ICc1ccc2c(c1)OCO2`, the melting point was found to be 51 °C.
The figure for `CCc1ccc(-c2onc3ccccc23)cc1` is 42 to 42.5 °C.
Regarding `CCCN(C1=C(O)CC(C2CCCC2)(C2CCCC2)OC1=O)c1cccc(NS(=O)(=O)c2ccccn2)c1`, the melting point was 105 to 107 °C.
`Cc1cc(-c2ccc(NC(=O)CCN3CCC(c4ccccc4)CC3)cc2)n[nH]c1=O` showed a melting point of 239 to 240 °C.
The compound `CCCn1c(COCC)nc2c(N)nc3cc(OCC(=O)N4CCOCC4)ccc3c21` gave a melting point of 213 °C.
Compound `COc1ccc(C=O)c2cc(C)oc12` returned a melting point of 167 to 170 °C.
The figure for `CCc1nn(C(=O)NS(=O)(=O)c2ccccc2C(=O)OC)c(=O)n1C` is 131 °C; for `CC(CC(=O)c1ccccc1)C(=O)N1CSCC1C(=O)O` (stereo not given) it is 182 to 183 °C.
In the case of `O=C(O)C(=O)c1ccc(OCCOc2cc3ccccc3cc2O)cc1`, the melting point lay in the range of 191 to 192 °C.
The figure for `CC(C)C(CO)NC(=O)c1nsc2ccc(-n3c(=O)cc(C(F)(F)F)n(C)c3=O)cc12` (stereo not given) is 120 °C; for `O=C1N(c2c(Cl)cccc2Cl)Cc2cnc(Nc3cccc4ccccc34)nc2N1c1ccccc1` it is 213 to 214 °C.
The compound `COc1ccc(C(=O)Nc2ccccc2)cc1Nc1cccc(Cl)c1` had a melting point of 168 to 170 °C.
As to `COc1ccc(C=Cc2nc(CCl)co2)cc1`, the melting point was in the range of 148 to 151 °C.
